{"source": "paper PMC12196455", "about": "“Effect of Tegoprazan on Tacrolimus and Mycophenolate Levels in Kidney Transplant Recipients: A Randomized Controlled Study Using a Smart Trial Platform” (Pharmaceuticals, 2025)", "key": {"[1]": {"test": "Tacrolimus blood trough level (12 h post-dose, chemiluminescent immunoassay) in the randomized trial of tegoprazan vs pantoprazole", "assay_type": "in vivo, human (kidney transplant recipients)", "details": "12-week follow-up in KTRs; result in words", "source_text": "(§1) This study was a prospective, open-label, randomized controlled trial conducted on KTRs receiving tacrolimus, mycophenolate, and steroids. This study was registered at the Clinical Research Information Service (CRIS), Republic of Korea (Registration No. KCT 0010481, registration date: 20 May 2025). Data analysis took place at Kyungpook National University Hospital, Republic of Korea, from August 2022 to May 2023. The trial adhered to the approval guidelines of the Institutional Review Board of Kyungpook National University Hospital (IRB No. 2022-02-013, approval date: 31 March 2022).\n(§2) Patients were randomly assigned to either the P-CAB (tegoprazan 50 mg) group or the PPI (pantoprazole 20 mg) group. Enrolled KTRs were scheduled for four visits at baseline, 4, 8, and 12 weeks post-randomization. The dosage of immunosuppressants remained unchanged throughout the 12-week study period. Blood tests, including measurements of immunosuppressant trough levels, serum creatinine levels, estimated glomerular filtration rate (eGFR), and vital signs, were conducted at each visit.\n(§3) The primary outcome was to compare changes in drug concentrations of tacrolimus and mycophenolate following the administration of tegoprazan in KTRs.\n(§4) Trough levels of tacrolimus and mycophenolate were measured at 12 h post-dose, following standard clinical practice for therapeutic drug monitoring in transplant recipients. Blood samples were collected at scheduled morning visits, and the 12 h interval was confirmed using electronic pillbox adherence data or patient interviews. Tacrolimus concentrations were measured using the Dimension® TAC Flex® reagent cartridge (Siemens Healthcare Diagnostics Inc., Newark, NJ, USA) on the Siemens Dimension® Integrated Chemistry System, employing a homogeneous chemiluminescent immunoassay (CLIA) method. Mycophenolic acid concentrations were measured using the Dimension® MPA Flex® reagent cartridge (Siemens Healthcare Diagnostics Inc., Newark, USA) on the same system, based on a particle-enhanced turbidimetric inhibition immunoassay (PETINIA) method. All assays were conducted in the Department of Laboratory Medicine at the study hospital."}, "[2]": {"test": "Mycophenolate (mycophenolic acid) trough level (12 h post-dose, PETINIA immunoassay) in the randomized trial of tegoprazan vs pantoprazole", "assay_type": "in vivo, human (kidney transplant recipients)", "details": "12-week follow-up in KTRs; result in words", "source_text": "as §1, §2, §3, §4"}, "[3]": {"test": "Transplant outcomes (eGFR, de novo DSA, BPAR, allograft loss)", "assay_type": "in vivo, human (kidney transplant recipients)", "details": "for eGFR: mean ± SD", "procedure": "Patients were randomly assigned to either the P-CAB (tegoprazan 50 mg) group or the PPI (pantoprazole 20 mg) group. Enrolled KTRs were scheduled for four visits at baseline, 4, 8, and 12 weeks post-randomization. The dosage of immunosuppressants remained unchanged throughout the 12-week study period. Blood tests, including measurements of immunosuppressant trough levels, serum creatinine levels, estimated glomerular filtration rate (eGFR), and vital signs, were conducted at each visit. The collected data included patient demographics such as gender, age, height, weight, blood tacrolimus, mycophenolate concentrations, kidney function, liver function tests, allograft loss, and acute rejection episodes. We collected DSA information. DSA was identified using the Luminex single-antigen assay (LSA). […] The secondary outcome included evaluating transplant outcomes and GI symptoms using questionnaires. The transplant outcomes assessed were changes in eGFR, biopsy-proven acute rejection (BPAR), allograft loss, and de novo DSA during the study period. De novo DSA was defined as the new appearance of antibodies against mismatched donor human leukocyte antigen (HLA) not present at baseline."}, "[4]": {"test": "GI symptom questionnaires (GERD-HRQL, RDQ) via electronic diary app", "assay_type": "in vivo, human (kidney transplant recipients)", "parameters": "key to GERD-HRQL score: sum of 10 items each scored 0-5; higher = poorer quality of life", "details": "mean ± SD", "procedure": "Changes in GI symptoms were measured and recorded using a self-developed electronic diary app installed on participants’ mobile phones. This app facilitated the assessment of GI symptoms through the Gastroesophageal Reflux Disease–Health-Related Quality of Life (GERD-HRQL) and Reflux Disease Questionnaire (RDQ). The GERD-HRQL scale comprises 10 items, addressing both GI symptoms and the patient’s overall condition. Each item is scored on a scale from 0 to 5, with higher scores indicating a poorer quality of life. The RDQ is a 6-item self-administered questionnaire designed to evaluate the severity and frequency of heartburn sensation, gastric acid regurgitation, and dyspepsia.\nThe secondary outcome included evaluating transplant outcomes and GI symptoms using questionnaires. The transplant outcomes assessed were changes in eGFR, biopsy-proven acute rejection (BPAR), allograft loss, and de novo DSA during the study period. De novo DSA was defined as the new appearance of antibodies against mismatched donor human leukocyte antigen (HLA) not present at baseline."}, "Adverse event monitoring": {"test": "Adverse event monitoring", "assay_type": "in vivo, human (kidney transplant recipients)", "details": "12 weeks", "procedure": "Safety evaluations were conducted through comprehensive monitoring, including physical examinations, clinical laboratory tests, vital signs, and the documentation of adverse events (AEs). Participants were encouraged to voluntarily report AEs regularly throughout the study."}, "[5]": {"parameters": "method as in PMID 34246485", "details": "result in words; cited from earlier work"}, "[6]": {"details": "during the 12-week study period"}}}
{"smiles": "Cc1nc2cc(C(=O)N(C)C)cc(O[C@H]3CCOc4cc(F)cc(F)c43)c2[nH]1", "note": "[P-CAB, tegoprazan]", "values": [{"measurement": "Effect on blood trough level of tacrolimus", "setting": "[1]", "value": "does not alter"}, {"measurement": "Effect on blood trough level of mycophenolate", "setting": "[2]", "value": "does not alter"}, {"measurement": "eGFR", "setting": "[3]; Baseline", "value": "62.8 ± 17.1", "unit": "mL/min/1.73 m^2"}, {"measurement": "eGFR", "setting": "[3]; Week 4", "value": "61.8 ± 13.0", "unit": "mL/min/1.73 m^2"}, {"measurement": "eGFR", "setting": "[3]; Week 8", "value": "60.6 ± 12.8", "unit": "mL/min/1.73 m^2"}, {"measurement": "eGFR", "setting": "[3]; Week 12", "value": "63.5 ± 16.5", "unit": "mL/min/1.73 m^2"}, {"measurement": "Allograft Loss", "setting": "[3]; [6]", "value": 0, "unit": "number"}, {"measurement": "BPAR", "setting": "[3]; [6]", "value": 0, "unit": "number"}, {"measurement": "RDQ score", "setting": "[4]; Baseline", "value": "4.7 ± 4.7"}, {"measurement": "GERD-HRQL score", "setting": "[4]; Baseline, higher score = poorer quality of life", "value": "4.9 ± 4.3"}, {"measurement": "GERD-HRQL score", "setting": "[4]; Week 4", "value": "0.9 ± 1.4"}, {"measurement": "RDQ score", "setting": "[4]; Week 4", "value": "1.0 ± 2.1"}, {"measurement": "GERD-HRQL score", "setting": "[4]; Week 8", "value": "0.7 ± 1.0"}, {"measurement": "RDQ score", "setting": "[4]; Week 8", "value": "0.6 ± 1.2"}, {"measurement": "GERD-HRQL score", "setting": "[4]; Week 12", "value": "0.7 ± 1.6"}, {"measurement": "RDQ score", "setting": "[4]; Week 12", "value": "0.7 ± 1.9"}, {"measurement": "AE: Abdominal discomfort", "setting": "Adverse event monitoring", "value": "3 (11.5) number (%)"}, {"measurement": "AE: Arthralgia", "setting": "Adverse event monitoring", "value": "1 (3.8) number (%)"}, {"measurement": "AE: Constipation", "setting": "Adverse event monitoring", "value": "2 (7.7) number (%)"}, {"measurement": "AE: Diarrhea", "setting": "Adverse event monitoring", "value": "5 (19.2) number (%)"}, {"measurement": "AE: Headache", "setting": "Adverse event monitoring", "value": "0 (0.0) number (%)"}, {"measurement": "AE: Hypertension", "setting": "Adverse event monitoring", "value": "4 (15.4) number (%)"}, {"measurement": "AE: Hypoglycemia", "setting": "Adverse event monitoring", "value": "1 (3.8) number (%)"}, {"measurement": "AE: Myalgia", "setting": "Adverse event monitoring", "value": "0 (0.0) number (%)"}, {"measurement": "AE: Nausea, vomiting", "setting": "Adverse event monitoring", "value": "3 (11.5) number (%)"}, {"measurement": "AE: Productive cough, sputum", "setting": "Adverse event monitoring", "value": "4 (15.4) number (%)"}, {"measurement": "AE: Pyrexia", "setting": "Adverse event monitoring", "value": "0 (0.0) number (%)"}, {"measurement": "AE: Toothache", "setting": "Adverse event monitoring", "value": "0 (0.0) number (%)"}, {"measurement": "AE: Upper respiratory tract infection", "setting": "Adverse event monitoring", "value": "2 (7.7) number (%)"}, {"measurement": "AE: Urinary tract infection", "setting": "Adverse event monitoring", "value": "0 (0.0) number (%)"}, {"measurement": "AE: Vertigo", "setting": "Adverse event monitoring", "value": "0 (0.0) number (%)"}, {"measurement": "Participants with AEs", "setting": "Adverse event monitoring", "value": "15 (57.7) number (%)"}, {"measurement": "Participants with SAEs", "setting": "Adverse event monitoring", "value": "2 (7.7) number (%)"}, {"measurement": "Withdrawal due to AEs", "setting": "Adverse event monitoring", "value": "0 (0.0) number (%)"}, {"measurement": "Cases of serious adverse events (SAEs)", "setting": "Adverse event monitoring; none related to the study drug", "value": "two"}, {"measurement": "Overall incidence of AEs", "setting": "Adverse event monitoring; p = 0.032 between groups", "value": 57.7, "unit": "%"}, {"measurement": "AE: COVID-19", "setting": "Adverse event monitoring; human, in vivo", "value": "0 (0.0) number (%)"}, {"measurement": "Effect of food intake on pharmacokinetic and pharmacodynamic properties", "setting": "[5]", "value": "unaffected by food intake"}]}
